In patent publication US9605064B2, “Methods and compositions for treatment of skin disorders” (AbbVie Biotechnology Ltd, priority 2006, dated 2017):

Tested on: patients with moderate to severe chronic plaque psoriasis
Assay: PASI response, Phase II 12-week placebo-controlled trial with 48-week extension
Type: in vivo, human
Conditions: for PASI 50 / PASI 90 / PASI 100: after 60 weeks of 40 mg eow; for patients with PASI<50 response, qualified for dosage escalation to weekly: on or after Week 24; for Number of Patients Who Qualified for Dosage Escalation: placebo/adalimumab 40 mg eow (n = 18)
Text: Efficacy outcome measures included PASI and PGA.
The two primary clinical outcome measures used in this study were the psoriasis area and severity index (PASI) and the physician's global assessment (PGA). PASI improvement of greater than or equal to 75% (used as an endpoint in psoriasis clinical trials) at week 12 was the primary efficacy outcome measure for this study. PASI is a composite index indicating severity for three main signs of psoriatic plaques (erythema, scaling, and thickness), weighted by the amount of coverage of these plaques in four main body areas, i.e., head, trunk, upper extremities, and lower extremities. PASI scores, which range from 0-72, with higher scores indicating greater severity, were assessed at screening, baseline, week 1, week 2, week 4, week 8, week 12/early termination, and follow-up.
Skin and safety outcomes were assessed up to Week 60.
Analytical methods included the following: • Analyses of clinical data were performed on a modified intention-to-treat population (ITT). […] Patients whose dosages were increased on or after Week 24 were considered non-responders; • Patients with similar percentage PASI improvement across treatment arms were pooled into four strata: PASI<50, PASI 50-74, PASI 75-99, and PASI 100; and • Week-60 distribution of DLQI scores, mean DLQI scores, and mean change in DLQI from Week 0-60 were calculated within each stratum.
Frequently used as an endpoint in psoriasis clinical trials, the PASI [25] was the primary efficacy outcome in this trial. PASI is a composite index indicating the severity of the three main signs of psoriatic plaques (i.e., erythema, scaling, and thickness) and is weighted by the amount of coverage of these plaques in the four main body areas (head, trunk, upper extremities, and lower extremities). PASI scores range from 0-72, with higher scores indicating greater disease severity. PASI was assessed at screening and baseline, at Weeks 1, 2, 4, 8, and 12/Early Termination, and at the final follow-up visit.
At week 12, placebo patients received an 80-mg loading dose, then 40 mg every other week. […] Patients who receive the rescue therapy were considered non-responders in this analysis.

[1] = Week 60, adalimumab 40 mg weekly, modified ITT, NRI
[2] = Week 60, placebo/adalimumab 40 mg eow (adalimumab from Week 12), modified ITT, NRI
[3] = baseline PASI ≧10 and DLQI >10, 40 mg eow, Week 12
[4] = baseline PASI ≧10 and DLQI >10, 40 mg eow, Week 24
[5] = baseline PASI ≧10 and DLQI >10, 40 mg eow, Week 36
[6] = baseline PASI ≧10 and DLQI >10, 40 mg eow, Week 60
[7] = baseline PASI ≧10 and DLQI >10, 40 mg weekly, Week 12
[8] = baseline PASI ≧10 and DLQI >10, 40 mg weekly, Week 24
[9] = baseline PASI ≧10 and DLQI >10, 40 mg weekly, Week 36
[10] = baseline PASI ≧10 and DLQI >10, 40 mg weekly, Week 60
[11] = baseline PASI ≧10 and DLQI >10, placebo/adalimumab 40 mg eow, Week 24
[12] = baseline PASI ≧10 and DLQI >10, placebo/adalimumab 40 mg eow, Week 36
[13] = baseline PASI ≧10 and DLQI >10, placebo/adalimumab 40 mg eow, Week 60
[14] = dosage escalation group (eow to 40 mg weekly, n = 30), Week 60
[15] = placebo/adalimumab 40 mg eow, Week 60, modified ITT, NRI
[16] = weekly group, week 60, observed analysis

Adalimumab: a human anti-TNF mAb, described in U.S. Pat. No. 6,090,382 as D2E7 (HUMIRA, Abbott Laboratories)
PASI 50 (% patients) [1]: 66% | Percentage of patients who achieved PASI 75 [1]: 64% | Percentage of patients who achieved PASI 90 [1]: 48% | Percentage of patients who achieved PASI 100 (Week 60, placebo/adalimumab 40 mg eow (adalimumab from Week 12), NRI): 19% | PASI 50 (% patients) [2]: 64% | Percentage of patients who achieved PASI 75 [2]: 45% | Percentage of patients who achieved PASI 90 [2]: 40% | PASI 75 response rate [3]: 69 % of Patients | PASI 90 response rate [3]: 39 % of Patients | PASI 75 response rate [4]: 77 % of Patients | PASI 90 response rate [4]: 54 % of Patients | PASI 75 response rate [5]: 73 % of Patients | PASI 90 response rate [5]: 58 % of Patients | PASI 75 response rate [6]: 65 % of Patients | PASI 90 response rate [6]: 42 % of Patients | PASI 75 response rate [7]: 74 % of Patients | PASI 90 response rate [7]: 61 % of Patients | PASI 75 response rate [8]: 78 % of Patients | PASI 90 response rate [8]: 70 % of Patients | PASI 75 response rate [9]: 74 % of Patients | PASI 90 response rate [9]: 65 % of Patients | PASI 75 response rate [10]: 65 % of Patients | PASI 90 response rate [10]: 48 % of Patients | PASI 75 response rate [11]: 50 % of Patients | PASI 90 response rate [11]: 28 % of Patients | PASI 75 response rate [12]: 50 % of Patients | PASI 90 response rate [12]: 50 % of Patients | PASI 75 response rate [13]: 44 % of Patients | PASI 90 response rate [13]: 39 % of Patients | PASI 50 response rate [14]: 40% | PASI 75 response rate [14]: ~20% | PASI 90 response rate [14]: 0% | PASI 75 response rate (dosage escalation group (eow to 40 mg weekly, n = 30), Week 60, listed as adalimumab): 17% | PASI 50 response (eow arm, Week 24): 73 | PASI 75 response rate (no prior use, 40 mg eow, Week 24): 65 % Patients | PASI 75 response rate (no prior use, 40 mg eow, Week 60): 48 % Patients | PASI 75 response rate (no prior use, 40 mg weekly, Week 24): 76 % Patients | PASI 75 response rate (no prior use, 40 mg weekly, Week 60): 64 % Patients | PASI 50 (no prior use): 65% | PASI 90 (no prior use): 30% | PASI 100 (no prior use): 17% | PASI 75 response rate (no prior use, placebo/adalimumab 40 mg eow, Week 24): 56 % Patients | PASI 75 response rate (no prior use, placebo/adalimumab 40 mg eow, Week 60): 40 % Patients | patients with PASI<50 response, qualified for dosage escalation to weekly (of the 45 patients in adalimumab eow group): 12 patients | patients with PASI<50 response, qualified for dosage escalation to weekly (of the 47 patients in placebo/adalimumab eow group): 18 patients | patients with PASI≧75 after dose escalation (original adalimumab 40 mg every other week arm (two out of nine), week 60): 22% | patients with PASI≧75 after dose escalation (original placebo/adalimumab 40 mg every other week arm (two out of thirteen), week 60): 15% | Number of Patients Who Qualified for Dosage Escalation (Week 24): 10 | Number of Patients Who Qualified for Dosage Escalation (Week 28): 2 | Number of Patients Who Qualified for Dosage Escalation (Week 32): 2 | Number of Patients Who Qualified for Dosage Escalation (Week 44): 1 | Number of Patients Who Qualified for Dosage Escalation (Week 52): 3 | Number of Patients Who Qualified for Dosage Escalation (Week 60): 0 | Overall PASI 75 response rate (placebo/adalimumab 40 mg eow, Week 24, modified ITT, NRI): 55 % of Patients | Overall PASI 75 response rate (placebo/adalimumab 40 mg eow, Week 36, modified ITT, NRI): 62 % of Patients | Overall PASI 75 response rate [15]: 45 % of Patients | PASI 50 response rate [15]: 57 % Patients | PASI 90 response rate [15]: 40 % Patients | PASI 100 response rate [15]: 19 % Patients | PASI 50 response (placebo/eow arm, Week 24): 77 | PASI 50 (prior biologic use): 63% | PASI 90 (prior biologic use): 38% | PASI 100 (prior biologic use): 13% | PASI 75 response rate (prior biological use, 40 mg eow, Week 24): 50 % Patients | PASI 75 response rate (prior biological use, 40 mg eow, Week 60): 63 % Patients | PASI 75 response rate (prior biological use, 40 mg weekly, Week 24): 67 % Patients | PASI 75 response rate (prior biological use, 40 mg weekly, Week 60): 78 % Patients | PASI 75 response rate (prior biological use, placebo/adalimumab 40 mg eow, Week 24): 63 % Patients | PASI 75 response rate (prior biological use, placebo/adalimumab 40 mg eow, Week 60): 63 % Patients | PASI 75 response rate (prior systemic use, 40 mg eow, Week 24): 68 % Patients | PASI 75 response rate (prior systemic use, 40 mg eow, Week 60): 68 % Patients | PASI 75 response rate (prior systemic use, 40 mg weekly, Week 24): 73 % Patients | PASI 75 response rate (prior systemic use, 40 mg weekly, Week 60): 64 % Patients | PASI 50 (prior systemic use): 68% | PASI 90 (prior systemic use): 37% | PASI 100 (prior systemic use): 11% | PASI 75 response rate (prior systemic use, placebo/adalimumab 40 mg eow, Week 24): 47 % Patients | PASI 75 response rate (prior systemic use, placebo/adalimumab 40 mg eow, Week 60): 41 % Patients | PASI 50 response (weekly arm, Week 24): 80 | PASI 75-99 response rate [16]: 38 | PASI 100 response rate [16]: 26
